Measured values: PubChem BioAssay (NCI)
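Compound exposure: 48 hours, 5 concentrations, 96-well plates. TGI denotes the concentration required for complete inhibition of growth.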

Key:
Experiment in all cases: inhibition of tumour cell growth, NCI panel, 48 h
[1] = test system: SW-620 colon
[2] = test system: CCRF-CEM leukemia
[3] = test system: LOX IMVI melanoma
[4] = test system: NCI-H23 lung
[5] = test system: UACC-62 melanoma
[6] = test system: SNB-19 CNS
[7] = test system: MDA-N
[8] = test system: HCT-116 colon
[9] = test system: MDA-MB-231 breast
[10] = test system: CAKI-1 renal

| SMILES | TGI [1] [µM] | TGI [2] [µM] | TGI [3] [µM] | TGI [4] [µM] | TGI [5] [µM] | TGI [6] [µM] | TGI [7] [µM] | TGI [8] [µM] | TGI [9] [µM] | TGI [10] [µM] |
| --- | --- | --- | --- | --- | --- | --- | --- | --- | --- | --- |
| COc1ccc2cc(CNCCCCCCNC(=O)Nc3cccc4ccccc34)ccc2c1 | > 100 | > 100 | > 100 | > 100 | > 100 | > 100 | > 100 | > 100 | > 100 | > 100 |
| CCOC(=O)/C(C(=O)c1ccc[nH]1)=C1/CCCN1C | > 100 | > 100 | > 100 | > 100 | > 100 | > 100 | > 100 | > 100 | > 100 | > 100 |
| C#C[C@]1(O)CC[C@H]2[C@@H]3CCC4=C/C(=N/OC(=O)c5cccc6cc7ccccc7nc56)CC[C@@H]4[C@H]3CC[C@@]21CC | > 100 | > 100 | > 100 | > 100 | > 100 | > 100 | > 100 | > 100 | > 100 | > 100 |
| COC(=O)C(=O)C(C(=O)C(=O)Nc1cc(C)ccc1C)c1nc2ccccc2[nH]c1=O (stereo unspecified) | > 100 | > 100 | > 100 | > 100 | > 100 | > 100 | > 100 | > 100 | > 100 | > 100 |
| O=C(Cn1c(=O)oc2ccccc21)N(c1ccccc1)c1ccccc1 | > 100 | > 100 | > 100 | > 100 | > 100 | > 100 | > 100 | > 100 | > 100 | > 100 |
| CC(C)C1OC(=O)C(Cc2ccccc2)N(C)C(=O)C(C(C)C)OC(=O)C(Cc2ccccc2)N(C)C(=O)C(C(C)C)OC(=O)C(Cc2ccccc2)N(C)C1=O (stereo unspecified) | 2.54 | 1.59 | 2.1 | 2.62 | 1.98 | 2.18 | 2.1 | 2.36 | 2.67 | 2.46 |
| CNC(=O)OC1/C(C)=C\C(C)C(O)C(OC)CC(C)CC2=C(OC)C(=O)C=C(C2=O)N(C)C(=O)/C(C)=C/C=C\C1OC (stereo unspecified) | 12.5 | 4.08 | 16.6 | 15 | 17.6 | > 75.8 | 10.7 | 21.1 | 6.44 | 20.8 |
| CCN(CC)C(=O)N[C@@H](CC(C)C)C(=O)NC | > 100 | > 100 | > 100 | > 100 | > 100 | > 100 | > 100 | > 100 | > 100 | > 100 |
| Cc1n[nH]c(=O)c2c3c([nH]c12)-c1ccccc1C3 | > 100 | > 100 | > 100 | > 100 |  | > 100 | > 100 | > 100 | > 100 | > 100 |
| O=C1c2cccc3cc([N+](=O)[O-])cc(c23)C(=O)N1c1ccc(OCCN2CCCC2)cc1 | 95.2 | 73.5 | 34.6 | 39.7 |  | 80.2 | 80.3 | 46.7 | > 100 | > 100 |
| Cc1[nH]c2c(C)c3c([nH]c4ccc(Cl)cc43)c(C)c2c(=O)c1C | > 100 | 18.1 | 15.7 | 18.9 | > 88.3 | > 100 | 32.6 | 11.3 | 7.54 | 40.2 |
| NS(=O)(=O)c1ccc(Nc2c3ccccc3nc3c(C(=O)NC(CO)(CO)CO)cccc23)cc1 | 0.435 | 0.891 | 0.286 | 0.318 | 0.318 | 0.783 | 0.862 | 0.327 | 0.434 | 0.525 |
| Cc1ccc2c(c1)CC1(Cc3cc(C)ccc3C1=O)C2=O | > 100 | > 100 | > 100 | > 100 |  | > 100 | > 100 | > 100 | > 100 | > 100 |
| CCCCCCCC(=O)NC(C)(C)C(=O)NCC(=O)NC(CC(C)C)C(=O)NC(C)(C)C(=O)NCC(=O)NCC(=O)NC(CC(C)C)C(=O)NC(C)(C)C(=O)NCC(=O)NC(C(=O)NC(CO)CC(C)C)C(C)CC (stereo unspecified) | 9.28 | 11.7 | 6.88 | 7.49 | 7.54 | 6.83 | 7.37 | 7.09 | 7.38 | 8.07 |
| O=C1OCOC2(CCCC2)C1c1ccccc1 (stereo unspecified) | > 100 | > 100 | > 100 | > 100 | > 100 | > 100 | > 100 | > 100 | > 100 | > 100 |
| CC(NC(CC12CC3CC(CC(C3)C1)C2)C(N)=O)c1ccccc1 (stereo unspecified) | > 100 | 41.9 | 30.7 |  | > 100 | > 100 | 75.6 | 42.2 | > 100 | 61.2 |
